From patent US6399590B2, “Phosphoglycolipid and methods for its use” (Corixa Corporation, priority 1998, dated 2002)

Tests used:
[1] = tested on: IL-8 secretion by THP-1 cells; assay: IL-8 secretion in THP-1 cells (ELISA); assay type: cell-based, human; details: any concentration between 1 ng/ml and 10 μg/ml; supernatants at 4, 16 and 24 hours
Method: The human myelomonocytic cell line THP-1 is commonly used for the analysis of the proinflammatory status of various compounds. THP-1 cells (American Type Culture Collections Cat. No. 202-TIB) were grown in RPMI 1640, 10% heat inactivated fetal bovine serum (FBS) and […] β-mercaptoethanol to a cell density of between 4×10^5/ml and 7×10^5/ml. Cells were removed from culture and resuspended at 1×10^6 cells/ml in RPMI 1640 containing 5% fetal bovine serum. Resuspended cells were then pipetted into sterile, disposable polystyrene 150×25 mm petri dishes and treated with the natural maturational agent 1α, 25-dihyroxyvitamin D3 at 1×10^−7 M between 24 and 72 hours depending on the degree of maturation desired. These maturationally “pretreated” cells were then washed 3× in RPMI 1640 containing more than 2% but less than 10% fetal bovine serum. After the third wash cells were resuspended in RPMI 1640 containing 5% FBS plus 2% human AB sera (Irvine Scientific) at 5×10^5 cells/ml and transferred at 2 ml per well in a tissue culture grade, flat bottom polystyrene 24 well plate. […] Cytokine concentration in the THP-1 culture supernatants were quantified using standard human cytokine ELISA kits from R&D Laboratories. […]

[2] = tested on: Adult mongrel dogs, left anterior descending coronary artery (LAD) occlusion/reperfusion; assay: Infarct size in the dog, 60 min LAD occlusion and 3 h reperfusion; assay type: in vivo; details: L34 35 μg/kg 24 h before occlusion + aminoguanidine (AG) 30 mg/kg s.c. 60 min before occlusion; mean ± SEM; 30 mg/kg
Method: Adult mongrel dogs of either sex, weighing 19.0-30.0 kg were fasted overnight, anaesthetized with intravenous sodium barbital (200 mg/kg) and sodium pentobarbital (15 mg/kg), and ventilated with room air supplemented with 100% oxygen at an end expiratory pressure of 5-7 cm H2O to prevent atelectasis. Arterial blood pH PO2 and PCO2 were monitored at selected intervals by an automatic blood gas system and maintained within a normal physiological range (pH 7.35-7.45, PO2 10.6-16.0 kPa, PCO2 3,3-4.7 kPa) by adjusting the respiratory rate and oxygen flow and by an infusion of 1.5% sodium bicarbonate when necessary. Body temperature was maintained at 38±1° C. by using a heating pad.
A double pressure-transducer-tipped catheter was inserted into the aorta and left ventricle via the left carotid artery for measurements of aortic and left ventricular pressure. Left ventricular dP/dt was determined by electronic differentiation of the left ventricular pressure pulse.
A left thoracotomy was performed at the fifth intercostal space. The lung was retracted, the pericardium incised, and the heart suspended in a cradle. A 10-15 mm segment of the left anterior descending coronary artery (LAD) was dissected from surrounding tissue. […]
Regional myocardial blood flow was measured by the radioactive microsphere technique. […]

## CCCCCCCCCCCCCCCCCC(=O)O[C@H](CCCCCCCCCCC)CC(=O)N[C@H]1[C@H](OC[C@H]2OC(O)[C@H](NC(=O)C[C@@H](CCCCCCCCCCC)OC(=O)CCCCCCCCCCCCCCC)[C@@H](O)[C@@H]2O)O[C@H](CO)[C@@H](OP(=O)(O)O)[C@@H]1OC(=O)C[C@@H](CCCCCCCCCCC)OC(=O)CCCCCCCCCCCCC (stereo partly drawn) [L34, 2-Deoxy-6-O-[2-deoxy-4-O-phosphono-3-O-[(R)-3-tetradecanoyloxytetradecanoyl]-2-[(R)-3-octadecanoyloxytetradecanoylamino]-β-D-glucopyranosyl]-2-[(R)-3-hexadecanoyloxytetradecanoylamino]-D-glucopyranose]
[1]
  IL-8 secretion: did not induce detectable
[2]
  IS/AAR(%) (infarct size / area at risk): 25.2±2.7%
